The source of these data is patent US20150017665A1, “Peptides and Methods for Detecting MPO-ANCA” (The University of North Carolina at Chapel Hill, priority 2012, published 2015).

The test system of test [1] is MPO-ANCA. Put plainly: Epitope excision MALDI-TOF/TOF MS of patient and healthy Ig with native MPO. It counts as binding. Also noted: key: HC: Healthy control; Active disease; Remission. As to conditions: human Ig. From the text:
Total immunoglobulin (IgG) was purified from sera using protein A/G PLUS-Agarose Reagent according to commercial protocol (Santa Cruz Biotechnology). Purified IgG was immobilized on CNBr-activated Sepharose 4B (GE Healthcare) in compact reaction columns (CRC, USB Corporation) and exposed to native MPO protein (MPO, Elastin Products Co, Inc) followed by digestion with sequencing grade TPCK-treated trypsin (Worthington). MPO-peptides remaining bound to IgG after digestion were eluted with 0.1% trifluoro acetic acid and analyzed on a 4800 Plus Matrix-Assisted Laser Desorption Ionization Time of Flight Mass Spectrometry (MALDI TOF/TOF MS/MS) in conjunction with ProteinPilot software (AB SCIEX).
To identify epitopes of low titer autoantibodies, ^18O labeling (Mirza et al., J. Proteome Res. 7:3042 (2008)) was used to differentiate between the signal and the noise in the MS and MSMS spectra using the 4 Da shifts between the corresponding spectra of labeled and non-labeled peptides. Mass spectrometry analysis for epitopes recognized by MPO autoantibodies from healthy individuals, and for detection of low ANCA titers in remission samples required the use of isotope H2^18O to increase sensitivity (Cambridge Isotope Laboratories). Samples from healthy individuals (n=10) and MPO-ANCA patients in clinical remission (n=35) were processed in the presence of H2^18O. Incorporation of H2^18O on the carboxyl terminus of each proteolytic fragment of MPO during tryptic digestion, trypsin buffer was made with the isotope H2^18O as a diluent.
MPO-ANCA positive patients (n=45) from the University of North Carolina cohort (UNC) were analyzed in the initial studies. Demographics of the cohort (Table 2) indicate a predominantly Caucasian group. Approximately 40% are diagnosed with microscopic polyangiitis (MPA), 40% with renal-limited disease and 20% are diagnosed with granulomatosis with polyangiitis (GPA). To compare epitope specificities related to disease activity, longitudinal samples were analyzed to include active disease (n=52) and remission (n=35) from the UNC cohort (Tables 3 and 4). Ten healthy subjects were included in the analyses. Purified immunoglobulin (Ig) from sera samples was subjected to analysis by epitope excision MALDI-TOF/TOF mass spectrometry (depicted in FIG. 3A) to identify epitope profiles of autoantibodies reactive with MPO. In order to epitope map low titer anti-MPO antibodies from healthy subjects and from patients in disease remission, an approach was designed using the ^16O-to-^18O exchange technique, an adaptation of a proteomics-based quantification method (Mirza et al., J. Proteome Res. 7:3042 (2008)). Incorporation of H2^18O on the carboxyl termini of proteolytic fragments produces a 4 Da mass shift in the MS spectra, decipherable from background noise. MPO epitopes unique to Ig from patients with active disease were designated ‘exclusive to active disease’; epitopes identified in remission samples were designated ‘persistent during remission’; and those present in samples from healthy subjects were designated asymptomatic or ‘natural’.

Test [2] has as its system anti-MPO antibodies of immunized DR2 Tg mice. Put plainly: Epitope excision MS of IgG from immunized DR2 Tg mice with recombinant mouse MPO. It counts as binding. Conditions: DR2 Tg mice immunized with MPO aa442-460. The protocol:
Mass spectrometry analysis of ANCA-negative IgG and mouse IgG samples were conducted as above. With the exception of protein substrate, immobilized ANCA-negative IgG were exposed to whole leukocyte lysate preparation from a healthy donor and mouse IgG to recombinant mouse MPO (R&D Systems).
As HLA-MHC II help shape the B and T cell repertoires, and consequently the response to foreign and self-antigens, we wanted to define the epitope specificity of the anti-MPO autoantibodies that could be induced experimentally using DR2 Tg mice. In this way, we could assess development of the anti-MPO antibody response after immunization of a single epitope in the context of a human MHC II. IgG from sera of immunized mice was profiled for anti-MPO epitope specificity using epitope excision MS. DR2 Tg mice developed antibodies targeting the human B cell epitope aa447-459 which is within a conserved region of both murine and human MPO. Unpredictably, immunized DR2 Tg mice initiated a polyclonal response producing autoantibodies against the entire MPO molecule. The epitope profile was astonishingly similar to that of the MPO-ANCA human profile (Table 6), indicative of the critical nature of this epitope.

In test [3] the test system is MPO-ANCA. Put plainly: Peptide ELISA with total IgG (Chapel Hill and Groningen). It counts as binding, human. As for the experimental part:
A total of 195 IgG samples were tested by native MPO or peptide ELISA. Samples included those from healthy controls (n=59), active disease (n=80) and remission patients (n=56). Total IgG was added to wells (2 μg/well) precoated with 1-2 μg peptide (UNC-CH peptide synthesis core). Goat anti-human with alkaline phosphatase conjugate secondary antibody specific to IgG (H+L) (Millipore, Billerica, Mass.) (1:10,000) was added and detected using 1-Step PNPP substrate (Thermo Scientific) and read at λ=405 nm after 30 min. Identical peptides were used in ELISAs at both locations; all other substrates used to test NL cohort samples by ELISAs were prepared in Groningen. Total IgG (1:500˜2 mg/well) was added to precoated wells blocked with 1% BSA. Secondary antibody, goat anti-human conjugated with alkaline phosphatase (A5403; Sigma-Aldrich) (1:5000), was added and detected using p-nitrophenyl-phosphate disodium substrate.
(An ELISA detects its analyte on a solid surface through an enzyme-linked reagent.)

As for “DHGLPGYNAWR (listed as Homo sapiens) [aa593-603]”, the “Found in samples: Healthy control, Active disease, or Remission, (HC, A, R)” value (from here on “Found in samples: Healthy control”) in the test on MPO-ANCA [1] (Table 1) was “A, R, HC”; in the test on MPO-ANCA [1] (Table 6), “A, R, HC”. The “Epitopes found in immunized mice” value in test [2] is “DHGLPGYNAWR”.
With “FCGLPQPETVGQLGT (listed as Homo sapiens) [aa605-622]”, the “Found in samples: Healthy control” value in the test with MPO-ANCA [1] (Table 1) and in the test with MPO-ANCA [1] (Table 6) was “A” in each case.
In the case of “FPTDQLTPDQER (listed as Homo sapiens) [aa237-248]”, the “Found in samples: Healthy control” value in the test on MPO-ANCA [1] (Table 1) is listed as “A, R, HC”; with MPO-ANCA [1] (Table 6), “A, R, HC”.
On to “FQDNGR (listed as Homo sapiens) [aa369-374]”, for which the “Found in samples: Healthy control” value with MPO-ANCA [1] (Table 1) and with MPO-ANCA [1] (Table 6) was “A” throughout.
As for “FWWENEGVFSMQQR (listed as Homo sapiens) [aa678-691]”, the “Found in samples: Healthy control” value in the test on MPO-ANCA [1] (Table 1) was “A, R, HC”; in the test on MPO-ANCA [1] (Table 6), “A, R, HC”.
Consider “IANVFTNAFR (listed as Homo sapiens) [aa490-499]”, for which the “Found in samples: Healthy control” value in the test with MPO-ANCA [1] (Table 1) and with MPO-ANCA [1] (Table 6) was “A” each time. In addition, the “Epitopes found in immunized mice” value in test [2] is on record as “IANVFTNAFR”.
Take “IGLDLPALNMQR (listed as Homo sapiens) [aa579-590]”: the “Found in samples: Healthy control” value in the test on MPO-ANCA [1] (Table 1) is “A, R, HC”; in the test with MPO-ANCA [1] (Table 6), “A, R, HC”. For the same substance, the “Epitopes found in immunized mice” value in test [2] is “IGLDLPALNMQR”.
With “IPCFLAGDTR (listed as Homo sapiens) [aa396-405]”, the “Found in samples: Healthy control” value with MPO-ANCA [1] (Table 1) and in the test on MPO-ANCA [1] (Table 6) was “R” each time. Besides, in test [2], the “Epitopes found in immunized mice” value is “IPCFLAGDMR”.
On to “KYLPTYR (listed as Homo sapiens) [aa474-480]”, for which the “Found in samples: Healthy control” value is “A ,R” with MPO-ANCA [1] (Table 1) and “A, R” with MPO-ANCA [1] (Table 6).
Consider “LFEQVMR (listed as Homo sapiens) [aa572-578]”, for which the “Found in samples: Healthy control” value in the test on MPO-ANCA [1] (Table 1) is listed as “A, R, HC”; in the test on MPO-ANCA [1] (Table 6), “A, R, HC”. In test [2], the “Epitopes found in immunized mice” value is listed as “LFEQVMR”.
Turning to “LYQEAR (listed as Homo sapiens) [aa442-447]”, the “Found in samples: Healthy control” value with MPO-ANCA [1] (Table 1) and in the test with MPO-ANCA [1] (Table 6) was “A” each time.
Turning to “NGFPVALAR (listed as Homo sapiens) [aa220-228]”, the “Found in samples: Healthy control” value in the test with MPO-ANCA [1] (Table 1) and in the test with MPO-ANCA [1] (Table 6) was “A” throughout.
On to “NNIFMSNTYPR (listed as Homo sapiens) [aa715-725]”, for which the “Found in samples: Healthy control” value in the test with MPO-ANCA [1] (Table 1) and in the test on MPO-ANCA [1] (Table 6) was “A” throughout. The “Epitopes found in immunized mice” value in test [2] is “NNIFMSNTYPR”.
“NQINALTSFVDASMV (listed as Homo sapiens) [aa328-351]”: the “Found in samples: Healthy control” value with MPO-ANCA [1] (Table 1) and in the test on MPO-ANCA [1] (Table 6) was “A” in each case.
In the case of “QALAQISLPR (listed as Homo sapiens) [aa692-701]”, the “Found in samples: Healthy control” value was “A ,R” in the test with MPO-ANCA [1] (Table 1) and “A, R” in the test on MPO-ANCA [1] (Table 6).
Consider “QNQIAVDEIR (listed as Homo sapiens) [aa560-571]”, for which the “Found in samples: Healthy control” value is on record as “A, R” in the test on MPO-ANCA [1] (Table 1) and “A, R” in the test with MPO-ANCA [1] (Table 6).
In the case of “RDYLPLVLGPTAMR (listed as Homo sapiens) [aa460-473]”, the “Found in samples: Healthy control” value with MPO-ANCA [1] (Table 1) was “A, R, HC”; in the test on MPO-ANCA [1] (Table 6) it was “A, R, HC”.
“RSPTLGASNR (listed as Homo sapiens) [aa184-193]”: the “Found in samples: Healthy control” value in the test with MPO-ANCA [1] (Table 1) and with MPO-ANCA [1] (Table 6) was “A” each time. Besides, the “Epitopes found in immunized mice” value in test [2] is on record as “RSPTLGASNR”.
As to “VFFASWR (listed as Homo sapiens) [aa530-536]”, the “Found in samples: Healthy control” value is recorded as “A, R, HC” in the test with MPO-ANCA [1] (Table 1) and “A, R, HC” with MPO-ANCA [1] (Table 6). Besides, in test [2], the “Epitopes found in immunized mice” value is “VFFASWR”.
For “VGPLLACI (listed as Homo sapiens) [aa657-664]”, the “Found in samples: Healthy control” value with MPO-ANCA [1] (Table 1) and in the test on MPO-ANCA [1] (Table 6) was “A” each time.
For “VVLEGGIDPILR (listed as Homo sapiens) [aa537-548]”, the “Found in samples: Healthy control” value with MPO-ANCA [1] (Table 1) and in the test on MPO-ANCA [1] (Table 6) was “A” throughout. Further, the “Epitopes found in immunized mice” value in test [2] is on record as “VVLEGGIDPILR”.
Regarding “WDGER (listed as Homo sapiens) [aa437-441]”, the “Found in samples: Healthy control” value was “A, R” in the test with MPO-ANCA [1] (Table 1) and “A, R” with MPO-ANCA [1] (Table 6).
Take “WLPAEYEDGFSLPYG (listed as Homo sapiens) [aa198-219]”: the “Found in samples: Healthy control” value in the test with MPO-ANCA [1] (Table 1) and in the test on MPO-ANCA [1] (Table 6) was “A” throughout.
Consider “YQPMEPNPR (listed as Homo sapiens) [aa516-524]”, for which the “Found in samples: Healthy control” value is “A, R, HC” with MPO-ANCA [1] (Table 1) and “A, R, HC” in the test with MPO-ANCA [1] (Table 6). The “ELISA reactivity in clinical remission” value with MPO-ANCA [3] (UNC and NL cohorts, remission samples) was “reactivity was found in remission samples in both cohorts”. Further, the “ELISA reactivity with Ig from active disease samples” value in the test on MPO-ANCA [3] (active disease samples) was “reactive with Ig from active disease samples”.
